What was measured:
Assay in all cases: relative viability (nuclei count vs DMSO), 5 days (fraction); higher = more cells survive
[1] = compound: O=C(O)c1ccc(-c2c[nH]c3ncc(-c4ccccc4)cc23)cc1C1CCCC1
Procedure, shortened: (§1)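 Cells of lung cancer lines were placed in 1536-well plates and kept overnight at 37 °C. Pinning then delivered five library-drug doses (not always all listed), spaced by √10, onto plates anchored with vehicle, and the cells were left 5 days without changing medium. One step fixed, permeabilised and stained them with Hoechst, and MetaXpress counted nuclei in 4× images. Viability, as a median over plates, is treated-well nuclei divided by vehicle-well nuclei, with acceptance only at control CV below 25% and at least one doubling.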

[2] = compound: CC1(C)CCC(c2ccc(Cl)cc2)=C(CN2CCN(c3ccc(C(=O)NS(=O)(=O)c4ccc(N[C@H](CCN5CCOCC5)CSc5ccccc5)c(S(=O)(=O)C(F)(F)F)c4)cc3)CC2)C1 [Navitoclax]
Procedure, shortened: as §1

[3] = compound: CCCCCCCC[C@H]1[C@@H](C(=C)C(=O)O1)C(=O)O [C-75]
Procedure, shortened: as §1

[4] = compound: NC(=O)Nc1cc(-c2cccc(F)c2)sc1C(=O)N[C@H]1CCCNC1 [AZD7762]
Procedure, shortened: as §1

[5] = compound: Oc1nc(-c2ccc(C(F)(F)F)cc2)nc2c1CSCC2 [XAV939]
Procedure, shortened: as §1

Cell Line	relative viability ([1]; 0.04 µM)	relative viability ([1]; 0.1265 µM)	relative viability ([1]; 0.4 µM)	relative viability ([1]; 1.265 µM)	relative viability ([2]; 0.005 µM)	relative viability ([2]; 0.01581 µM)	relative viability ([2]; 0.1581 µM)	relative viability ([2]; 0.5 µM)	relative viability ([2]; 0.5 µM, anchor plate)	relative viability ([3]; 0.08 µM)	relative viability ([3]; 0.253 µM)	relative viability ([3]; 0.8 µM)	relative viability ([3]; 2.53 µM)	relative viability ([3]; 8 µM)	relative viability ([4]; 0.01 µM)	relative viability ([4]; 0.03162 µM)	relative viability ([4]; 0.1 µM)	relative viability ([4]; 0.2 µM, anchor plate)	relative viability ([4]; 0.3162 µM)	relative viability ([4]; 1 µM)	relative viability ([5]; 0.08 µM)	relative viability ([5]; 0.253 µM)	relative viability ([5]; 0.8 µM)	relative viability ([5]; 2.53 µM)	relative viability ([2]; 0.05 µM)
NCI-H1734	0.985	1.11	0.939	0.764	1.03	1.08	0.888	1.01	0.859	1.09	0.949	0.956	0.632	0.766	0.977	1.12	1.02	0.575	0.856	0.507	1.03	0.913	0.92	0.842	–
NCI-H1755	1.01	1.09	1.04	0.956	1.01	1.02	0.957	0.966	0.988	0.954	0.972	0.946	0.845	0.982	1.01	1.02	1.09	0.458	0.936	0.471	0.961	0.834	0.931	0.876	0.897
NCI-H1792	–	1.09	0.856	0.921	0.956	0.936	0.693	1.06	0.664	0.904	0.956	0.845	0.76	0.863	0.912	1.02	1.02	0.71	1.08	1.01	0.955	0.874	0.871	0.74	0.778
NCI-H1793	0.91	1.28	0.9	0.956	0.977	1.09	0.866	0.702	0.491	0.822	1.1	0.795	0.768	1.05	1.02	1.1	0.961	0.538	0.924	0.555	1.12	0.748	1.01	0.863	–
NCI-H1915	1.02	0.974	0.955	0.857	0.968	0.963	0.923	0.886	0.789	0.987	1.05	0.959	0.862	0.823	1.01	1.01	1.05	0.72	0.99	0.89	1.03	0.973	1.01	0.96	1.05
NCI-H1944	0.92	1.07	0.907	0.874	0.942	1.09	0.913	0.892	1.05	0.871	0.909	0.929	–	0.9	1	1	1.1	0.566	0.967	0.605	1.12	0.907	0.898	0.87	0.766
NCI-H1975	0.952	1.09	0.965	0.975	0.927	1.06	0.824	0.99	1.12	0.999	0.827	0.85	0.884	0.931	0.957	0.927	0.938	0.761	0.791	0.575	0.87	0.705	0.78	0.742	1.03
NCI-H1993	0.979	1.02	0.946	0.877	0.925	1.23	0.947	0.949	1.04	1.09	1.07	0.888	0.855	0.903	0.96	0.984	0.957	0.828	1.11	0.819	0.841	0.693	0.782	0.827	0.913
NCI-H2009	1.01	1.01	0.963	0.762	0.964	1.14	1.04	1.04	1.16	0.999	0.991	0.911	0.81	0.905	1.07	0.994	1.1	–	1	0.834	1.12	0.996	0.924	0.899	1.02
NCI-H2023	1.07	1.06	0.994	0.75	0.919	1.04	0.97	0.909	0.994	1	1.13	0.864	0.535	0.852	0.965	0.841	0.491	–	0.262	0.132	1.02	0.827	0.817	0.755	0.958
NCI-H2085	0.932	1.04	0.956	0.933	1.01	1.14	1.01	1.05	1.12	1.04	0.974	0.988	0.866	0.975	1.03	0.992	1.08	0.973	1.05	0.864	1.05	0.893	0.902	0.891	0.93
NCI-H2087	1.12	1.14	1.04	0.794	1.01	1.16	1.01	1.09	0.952	1.06	0.963	0.941	0.915	0.924	1.02	1.08	1.26	1.24	1.23	1.24	1.32	0.781	1.07	0.849	–
NCI-H2126	1.1	1	0.992	0.923	1.04	1.07	0.927	0.976	0.852	0.949	1.14	0.957	0.919	0.943	0.972	1.07	1.05	1.01	1.02	1.09	1.01	0.826	0.822	0.807	0.901
NCI-H2170	1.01	1	0.937	0.904	1.02	1.06	0.935	0.748	0.636	0.984	0.94	0.943	0.913	0.954	1	1.01	1.02	0.858	0.989	0.972	0.937	0.886	0.939	0.785	1.06
NCI-H2228	0.942	1.09	0.924	0.639	0.965	1.01	0.968	1.11	0.968	0.969	1.09	0.952	0.986	1.06	1.17	0.982	0.997	–	0.649	0.361	1.01	0.811	0.921	0.88	–
NCI-H2342	0.943	0.985	0.979	1.1	1.01	0.999	0.961	1.01	–	0.924	0.988	0.833	0.857	1.04	0.903	1.1	0.983	0.514	0.997	1.04	1.04	0.794	0.781	0.508	0.938
NCI-H2347	1.1	1.08	1.02	0.906	1.02	1.12	1.02	1.03	0.757	0.991	1.09	0.973	0.862	1.02	1.16	1.04	1.24	0.812	1.21	0.922	1.19	0.978	0.964	0.84	0.906
NCI-H2405	0.998	1.13	0.977	0.741	0.984	1.11	1.03	0.93	0.845	1.01	0.737	0.948	0.872	1.07	1.02	1.11	1.02	0.763	0.953	0.585	1.03	0.978	0.966	0.993	0.996
NCI-H3122	0.986	1.04	0.959	0.946	1.01	0.965	0.989	0.972	1.01	1	1	0.996	0.692	0.992	1.01	1.02	1.01	0.983	0.88	1.04	1.01	0.936	1.02	0.966	1.06
PC-3 [JPC-3]	1.07	1.09	1	0.945	1.03	1.07	1.01	1.02	0.816	0.961	0.97	0.994	0.995	1.16	1.03	1.06	1.1	0.897	1.05	0.931	1.02	0.924	1.02	0.947	1.08
PC-14	0.956	1.12	1	0.962	1	1.16	0.981	0.956	1.01	0.939	0.86	0.902	0.927	1	1.03	0.995	0.931	0.39	0.562	0.368	1.1	0.933	0.974	0.885	1.05
RERF-LC-KJ	1.02	0.96	0.985	0.916	0.973	0.98	1.01	0.997	0.987	1.02	1.14	0.981	0.95	1.06	0.976	1.03	1.06	1.03	1.04	0.959	0.968	0.862	0.859	0.743	0.961
SK-LU-1	1.01	1.13	0.978	0.74	1.01	1.06	0.949	1.02	0.813	1	1.06	0.964	0.894	0.816	1.1	1.06	0.633	–	0.366	0.242	1.01	1.02	1.03	1.07	1.12
SK-MES-1	1	1.05	0.943	0.755	1.01	1.17	0.95	1.04	1.25	1.01	1.02	0.937	0.93	0.943	1	1.03	1.05	–	0.818	0.372	1.07	0.906	0.919	0.858	1.11
SW 900	0.846	0.915	0.777	0.741	0.841	1.06	0.742	0.925	–	0.786	1.11	0.719	0.695	0.867	0.876	0.957	1.17	0.68	0.891	0.475	0.954	0.832	0.928	0.677	0.667
SW 1573	0.981	1.03	0.89	0.706	1.03	1.11	0.901	0.956	0.973	0.981	1.05	0.946	0.758	0.855	1.13	1.05	1.08	–	0.96	0.607	1.1	0.857	0.908	0.81	1.06
UMC-11	0.978	1.08	0.934	0.905	0.944	0.966	0.903	0.621	0.324	0.949	1.1	0.875	0.721	0.726	0.997	0.961	0.979	–	0.822	0.537	0.996	0.777	0.955	0.868	0.742

Reference: the supplement of paper PMC10307832
